The LD50 is the dose expected to kill half of the subjects tested. A word on the T/C: it is the ratio of treated to control.

Values after ≈ are worked out from the molar mass of the structure shown.

Data set [1] can be described thus: Cytotoxicity against human 9KB cells assessed as cell survival at 100 ug/ml relative to control. The format is functional. The note with it: read-out: Activity.
A short description of data set [2]: Cytotoxicity against human 9KB cells assessed as cell survival at 10 ug/ml relative to control. The format is functional. The note with it: read-out: Activity.
Data set [3] in a line: Toxicity in ip dosed mouse. It is filed as organism-based. To be noted: in vivo.
A short description of data set [4]: Cytotoxicity against human 9KB cells relative to control. It is filed as functional. To be noted: read-out: ED50 (the source's name).
For a further data set, the system named is P388. Briefly: Cytotoxicity against mouse P388 cells relative to control. It is filed as functional.
Data set [5] is described as follows: Cytotoxicity against human 9KB cells in in-vivo based assay at 65 mg/kg relative to control. The format is functional.

For the molecule `COc1ccc(C(=O)CCc2ccc(O)cc2)c(O)c1`, in data set [1], the viability at 100 µg/mL came to 0%. Further, the viability at 10 µg/mL in data set [2] was 100%.
The corresponding values for `COc1cc(C(=O)CCc2ccc(O)cc2)ccc1O` are 0% and 57%.
On to `O=C(CCc1ccc(O)cc1)c1ccc(O)cc1`, for which the viability at 100 µg/mL in data set [1] was determined as 0%. Further, the viability at 10 µg/mL in data set [2] worked out at 90%.
As to `CC(=O)c1ccc(O)c(O)c1O` [GALLACETOPHENONE], in data set [1], the viability at 100 µg/mL came out at 0%. The viability at 10 µg/mL in data set [2] was 81%.
As to `COc1cc(O)c(C(=O)CCc2ccc(O)cc2)c(O)c1` [ASEBOGENIN], the viability at 100 µg/mL in data set [1] came to 0%. In data set [2], the viability at 10 µg/mL came to 100%.
As for `COc1ccc(CCC(=O)c2c(O)cc(O)cc2O)cc1O`, the viability at 100 µg/mL in data set [1] was 46%. Further, the viability at 10 µg/mL in data set [2] came to 100%.
Turning to `CC(=O)c1c(O)cc(O)cc1O` [2,4,6-TRIHYDROXYACETOPHENONE], in data set [1], the viability at 100 µg/mL amounted to 29%. For the same molecule, the viability at 10 µg/mL in data set [2] turned out to be 100%.
In data set [3], `CC(=O)O[C@@H]1[C@H]2CC[C@H]3[C@@](C)(O)[C@@H]4C[C@H](O)C(C)(C)[C@@]4(O)[C@H](O)C[C@@]13C[C@@]2(C)O` [GRAYANOTOXIN I] registered an LD50 of 1.3 mg/kg. The EC50 in data set [4] worked out at 60 µg/mL (≈ 145 µM).
Regarding `O=C(CCc1ccc(O)cc1)c1ccccc1`, the viability at 100 µg/mL in data set [1] is 0%. Further, the viability at 10 µg/mL in data set [2] is 89%.
Consider `COc1cc(CCC(=O)c2ccccc2O)ccc1O`, for which the viability at 100 µg/mL in data set [1] amounted to 0%. Moreover, the viability at 10 µg/mL in data set [2] worked out at 76%.
For the molecule `COc1cc(O)c(Cc2ccccc2O)c(O)c1C(=O)CCc1ccccc1` [UVARETIN], the T/C with P388 is 132%.
In the case of `O=C(CCc1ccc(O)cc1)c1cccc(O)c1`, the viability at 100 µg/mL in data set [1] is 0%. Also, in data set [2], the viability at 10 µg/mL is 71%.
Turning to `O=C(CCc1ccc(O)cc1)c1c(O)cc(O)cc1O` [PHLORETIN], in data set [1], the viability at 100 µg/mL stood at 0%. Also, the EC50 in data set [4] came out at 28 µg/mL (≈ 102 µM). Besides, in data set [2], the viability at 10 µg/mL is 76%.
With `COc1cc(O)c(C(=O)CCc2ccc(O)cc2)c(O[C@@H]2O[C@H](CO)[C@@H](O)[C@H](O)[C@H]2O)c1` [ASEBOTIN], the viability at 100 µg/mL in data set [1] is 100%. In addition, in data set [2], the viability at 10 µg/mL was 100%.
Take `O=C(CCc1ccc(O)c(O)c1)c1ccc(O)c(O)c1O`: the viability at 100 µg/mL in data set [1] was 0%. In addition, in data set [5], the T/C came to 126%. In data set [4], the EC50 is 2.5 µg/mL (≈ 8.61 µM). The viability at 10 µg/mL in data set [2] amounted to 0%.
With `COc1cc(CCC(=O)c2ccccc2)ccc1O`, in data set [1], the viability at 100 µg/mL was found to be 0%. For the same molecule, the viability at 10 µg/mL in data set [2] amounted to 82%.
Take `O=C(CCc1ccc(O)cc1)c1ccc(O)cc1O` [DAVIDIGENIN]: the viability at 100 µg/mL in data set [1] is 0%. In addition, in data set [2], the viability at 10 µg/mL is 50%.
In the same order, the values of `O=C(CCc1ccc(O)c(O)c1)c1ccccc1O` are 0% and 100%.
On to `COc1cc(O)c(C(C)=O)c(O)c1`, for which, in data set [1], the viability at 100 µg/mL was 0%. For the same molecule, in data set [4], the EC50 was 4.7 µg/mL (≈ 25.8 µM). In addition, the viability at 10 µg/mL in data set [2] was found to be 0%.
As to `COc1cc(O)c(C(C)=O)c(OC)c1` [XANTHOXYLIN], in data set [1], the viability at 100 µg/mL stood at 0%. For the same molecule, the viability at 10 µg/mL in data set [2] amounted to 100%.
As to `O=C(CCc1ccc(O)cc1)c1ccc(O)c(O)c1O`, the viability at 100 µg/mL in data set [1] came to 0%. Moreover, the viability at 10 µg/mL in data set [2] was found to be 100%.
Consider `COc1cc(O)c(C(=O)CCc2ccccc2)c(OC)c1`, for which the viability at 100 µg/mL in data set [1] was determined as 0%. In addition, the viability at 10 µg/mL in data set [2] turned out to be 59%.
For the molecule `O=C(CCc1ccc(O)cc1)c1c(O)cccc1O`, the viability at 100 µg/mL in data set [1] worked out at 20%. Besides, the viability at 10 µg/mL in data set [2] is 100%.
For `O=C(CCc1ccc(O)c(O)c1)c1c(O)cc(O)cc1O`, in data set [1], the viability at 100 µg/mL is 0%. The viability at 10 µg/mL in data set [2] was found to be 95%.
The corresponding values for `O=C(CCc1ccc(O)cc1)c1ccccc1O` are 0% and 100%.
Turning to `COc1cc(O)c(C(C)=O)c(O[C@@H]2O[C@H](CO)[C@@H](O)[C@H](O)[C@H]2O)c1` [PLEOSIDE], in data set [1], the viability at 100 µg/mL is 39%. Further, in data set [2], the viability at 10 µg/mL turned out to be 100%.
As to `O=C(CCc1ccccc1)c1c(O)cc(O)cc1O`, the viability at 100 µg/mL in data set [1] worked out at 0%. In addition, the viability at 10 µg/mL in data set [2] is 100%.
As to `O=C(CCc1ccc(O)cc1)c1c(O)cc(O)cc1O[C@@H]1O[C@H](CO)[C@@H](O)[C@H](O)[C@H]1O` [PHLORIZIN], the viability at 100 µg/mL in data set [1] stood at 47%. The EC50 in data set [4] worked out at 100 µg/mL (≈ 229 µM). The viability at 10 µg/mL in data set [2] is 100%.

Source of the values: ChEMBL document CHEMBL1158654, “Cytotoxic principles from the sap of Kalmia latifolia” (J Nat Prod, 1979).
